The source made the active and inactive calls. The calls are words filed in the database; no cut-off is given here.
What was measured:
Mus musculus [1] = test: Antiobesity activity in diet-induced obesity C57Bl6/J mouse model assessed as reduction in food intake administered once daily via oral gavage for 2 weeks; format: functional
Mus musculus [2] = test: In vivo antagonist activity at CB1R in C57Bl6/J mouse assessed as reversal of ACEA-induced reduction in upper gastrointestinal motility administered via oral gavage administered 30 mins prior to ACEA addition; format: functional, organism-based
[3] = Tmax in mouse at 10 mg/kg, po; format: ADME, organism-based; conditions: in vivo
Brain [4] = test: Drug level in C57Bl6/J mouse brain at 10 mg/kg, po administered via gavage measured after 1 hr by LC-MS/MS analysis; format: ADME, organism-based; conditions: in vivo
Mus musculus [5] = test: Antiobesity activity in diet-induced obesity C57Bl6/J mouse model assessed as improvement in glucose tolerance administered once daily via oral gavage for 2 weeks measured at post last dose by ipGTT; format: functional
[6] = Oral bioavailability in Sprague-Dawley rat at 10 mg/kg; format: ADME, organism-based; conditions: in vivo
Mus musculus [7] = test: Antiobesity activity in diet-induced obesity C57Bl6/J mouse model assessed as reduction in hepatic steatosis by measuring hepatic triglyceride level administered once daily via oral gavage for 2 weeks; format: functional
Mus musculus [8] = test: Antifibrotic activity in BDL-induced CB1R deficient C57Bl6/J mouse liver damage model assessed as reduction in collagen deposition in liver at 10 mg/kg administered once daily via oral gavage by picrosirius staining based histological analysis; format: functional, organism-based
[9] = Ratio of drug level in brain to plasma in C57Bl6/J mouse at 10 mg/kg, po administered via gavage measured after 28 days by LC-MS/MS analysis; format: ADME, organism-based; conditions: brain and plasma, read-out: BPR
Salmonella typhimurium [10] = test: Mutagenicity in Salmonella typhimurium TA100 up to 125 ug/ml by Ames test; format: toxicity; conditions: salmonella enterica subsp. enterica serovar typhimurium
Liver [11] = test: Drug uptake in C57Bl6/J mouse liver at 10 mg/kg, po administered via gavage measured after 1 hr by LC-MS/MS analysis; format: ADME, organism-based; conditions: in vivo
Salmonella typhimurium [12] = test: Mutagenicity in Salmonella typhimurium TA98 up to 125 ug/ml by Ames test; format: toxicity; conditions: salmonella enterica subsp. enterica serovar typhimurium
Mus musculus [13] = test: Antiobesity activity in diet-induced obesity C57Bl6/J mouse model assessed as reduction in body weight administered once daily via oral gavage for 2 weeks; format: functional
Mus musculus [14] = test: Antifibrotic activity in CCl4-induced C57Bl6/J mouse liver fibrosis model assessed as reduction in liver fibrosis at 10 mg/kg administered via oral gavage for 4 weeks by picrosirius red staining based histological analysis; format: functional, organism-based
Brain [15] = test: Drug level in C57Bl6/J mouse brain at 10 mg/kg, po administered via gavage measured after 28 days by LC-MS/MS analysis; format: ADME, organism-based; conditions: in vivo, 672 h
Mus musculus [16] = test: Antifibrotic activity in BDL-induced wild-type C57Bl6/J mouse liver damage model assessed as reduction in collagen deposition in liver at 10 mg/kg administered once daily via oral gavage by picrosirius staining based histological analysis; format: functional, organism-based
Liver [17] = test: Drug uptake in C57Bl6/J mouse liver at 10 mg/kg, po administered via gavage measured after 28 days by LC-MS/MS analysis; format: ADME, organism-based; conditions: in vivo, 672 h
[18] = Ratio of drug level in brain to plasma in C57Bl6/J mouse at 10 mg/kg, po administered via gavage measured after 1 hr by LC-MS/MS analysis; format: ADME, organism-based
Mus musculus [19] = test: Antifibrotic activity in CCl4-induced C57Bl6/J mouse liver fibrosis model assessed as reduction in iNOS level at 10 mg/kg administered via oral gavage for 4 weeks by immunostaining based method; format: functional, organism-based
[20] = Half life in mouse at 10 mg/kg, po; format: ADME, organism-based; conditions: in vivo
[21] = Tmax in Sprague-Dawley rat at 10 mg/kg, po; format: ADME, organism-based; conditions: in vivo
Mus musculus [22] = test: Antifibrotic activity in BDL-induced wild-type C57Bl6/J mouse liver damage model assessed as reduction in liver fibrosis at 10 mg/kg administered once daily via oral gavage starting on day 6 post-BDL induction by picrosirius red staining based histological analysis; format: functional, organism-based
Mus musculus [23] = test: In vivo antagonist activity at CB1R in C57Bl6/J mouse assessed as induction of anxiogenic behavior at 10 mg/kg administered once daily via oral gavage for 28 days by elevated plus maze test; format: functional, organism-based
[24] = Half life in Sprague-Dawley rat at 10 mg/kg, po; format: ADME, organism-based; conditions: in vivo

For C/C(N)=N\C(=N/S(=O)(=O)c1ccc(Cl)cc1)N1C[C@H](c2ccccc2)C(c2ccc(Cl)cc2)=N1, which Activity (Mus musculus [1]) is on record?
Its Activity is “Dose-dependent effect”.

And the Activity (Mus musculus [2])?
The Activity was “Dose-dependent effect”.

And the Tmax [3]?
The Tmax was 1 h.

And the Drug uptake (Brain [4])?
The Drug uptake was under 3%.

And the Activity (Mus musculus [5])?
Its Activity is “Dose-dependent effect”.

And the bioavailability [6]?
Its bioavailability is 55%.

What about the Activity (Mus musculus [7]) of the same molecule?
The Activity was “Dose-dependent effect”.

And the Activity (Mus musculus [8])?
Its Activity is “Active”.

What about the Kp at 672 h [9] of the same molecule?
The Kp at 672 h was 0.03.

What about the Activity (Salmonella typhimurium [10]) of the same molecule?
The Activity was “Non-Toxic”.

What about the Drug uptake (Liver [11]) of the same molecule?
Its Drug uptake is “Active”.

And the Activity (Salmonella typhimurium [12])?
Its Activity is “Non-Toxic”.

What about the Activity (Mus musculus [13]) of the same molecule?
Its Activity is “Dose-dependent effect”.

What about the Activity (Mus musculus [14]) of the same molecule?
Its Activity is “Active”.

What about the Drug uptake (Brain [15]) of the same molecule?
The Drug uptake was under 3%.

And the Activity (Mus musculus [16])?
Its Activity is “Active”.

And the Drug uptake (Liver [17])?
The Drug uptake was “Active”.

What about the BPR [18] of the same molecule?
Its BPR is 2.7%.

What about the Activity (Mus musculus [19]) of the same molecule?
Its Activity is “Active”.

And the half-life [20]?
The half-life was 2 h.

What about the Tmax [21] of the same molecule?
The Tmax was 0.75 h.

What about the Activity (Mus musculus [22]) of the same molecule?
Its Activity is “Active”.

And the Activity (Mus musculus [23])?
The Activity was “inactive”.

What about the half-life [24] of the same molecule?
The half-life was 2 h.
